Experimental data: ChEMBL document CHEMBL5728709, “Indazole derivatives useful as inhibitors of diacylglyceride O-acyltransferase 2” (2021)

Molecular target: T1, Diacylglycerol O-acyltransferase 2 (Homo sapiens, UniProt Q96PD7)
T1 sequence (Q96PD7 whole entry): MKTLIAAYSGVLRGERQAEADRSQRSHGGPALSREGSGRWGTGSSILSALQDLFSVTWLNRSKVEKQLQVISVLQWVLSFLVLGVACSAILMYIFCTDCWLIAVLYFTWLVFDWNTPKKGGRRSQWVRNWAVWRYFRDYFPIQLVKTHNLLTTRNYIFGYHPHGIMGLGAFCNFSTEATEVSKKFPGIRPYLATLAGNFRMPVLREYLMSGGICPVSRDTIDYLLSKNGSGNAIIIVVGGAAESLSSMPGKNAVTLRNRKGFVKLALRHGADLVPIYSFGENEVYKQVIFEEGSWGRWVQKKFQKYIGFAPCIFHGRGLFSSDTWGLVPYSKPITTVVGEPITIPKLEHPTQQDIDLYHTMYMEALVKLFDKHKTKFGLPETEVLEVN
Assay: Enzymatic Activity Assay: DGAT2 activity was determined by measuring the amount of enzymatic product triolein (1,2,3-Tri(cis-9-octadecenoyl)glycerol) using the membrane prep mentioned above. The assay was carried out in deep well 384 plates in a final volume of 40 μL at room temperature. The assay mixture contained the following: assay buffer (100 mM Tris.Cl, pH 7.0, 20 mM MgCl2, 5% ethanol), 25 μM of diolein, 10 μM of oleoyl-CoA and 10 ng/μL of DGAT2 membrane.

**Q.** How did the IC50 turn out when `CC(C)(C)OC(=O)N1C[C@@H](O)[C@H](NC(=O)c2ccc3c(-c4ccccc4Cl)nn(-c4ccc(F)cc4)c3c2)C1` was run?
**A.** The IC50 was 0.205 µM.
